Results: ChEMBL document CHEMBL5247642, “Structural Optimization of Fibroblast Growth Factor Receptor Inhibitors for Treating Solid Tumors” (J Med Chem, 2023)
Activity calls are given as the source filed them. The rule behind the calls is not given here.

What was measured:
[1] = molecular target: Fibroblast growth factor receptor 4 (Homo sapiens, UniProt P22455); assay: Inhibition of FGFR4 (unknown origin) using Poly (Glu,Tyr) 4:1 as substrate incubated for 60 mins in presence of ATP by ELISA analysis
[2] = molecular target: T1, Fibroblast growth factor receptor (Homo sapiens) (UniProt P22607+P11362+P22455+P21802); assay: Inhibition of FGFR signalling in human SNU-16 assessed as inhibition of pErk phosphorylation at 0.1 nM incubated for 2 hrs by Western blot analysis; assay type: cell-based
[3] = molecular target: Fibroblast growth factor receptor 3 (Homo sapiens, UniProt P22607); assay: Inhibition of FGFR3 (unknown origin) using Poly (Glu,Tyr) 4:1 as substrate incubated for 60 mins in presence of ATP by ELISA analysis
[4] = GSH reactivity in PBS buffer assessed as percentage peak area ratio incubated for 24 hrs by LC-MS/MS analysis; assay type: physicochemical
[5] = molecular target: T1, Fibroblast growth factor receptor (Homo sapiens); assay: Inhibition of FGFR phosphorylation in human SNU-16 cells at 5 nM measured after 12 hrs; assay type: cell-based
A549 = assay: Antiproliferative activity against human A549 cells assessed as reduction in cell viability measured after 72 hrs; assay type: functional, cell-based; settings: A549, 72 h
NCI-H3122 = assay: Antiproliferative activity against human NCI-H3122 cells assessed as reduction in cell viability measured after 72 hrs; assay type: functional, cell-based; settings: NCI-H3122, 72 h
[6] = Half life in CD-1 mouse at 1 mg/kg, iv measured after 24 hrs by LC-MS/MS analysis; assay type: ADME, organism-based; settings: in vivo
SU.86.86 = assay: Antiproliferative activity against human SU-86-86 cells assessed as reduction in cell viability measured after 72 hrs; assay type: functional, cell-based; settings: SU.86.86, 72 h
CAPAN-1 = assay: Antiproliferative activity against human CAPAN-1 cells assessed as reduction in cell viability measured after 72 hrs; assay type: functional, cell-based; settings: CAPAN-1, 72 h
NCI-H520 = assay: Antiproliferative activity against human NCI-H520 cells assessed as reduction in cell viability measured after 72 hrs; assay type: functional, cell-based; settings: NCI-H520, 72 h
NCI-H226 = assay: Antiproliferative activity against human NCI-H226 cells assessed as reduction in cell viability measured after 72 hrs; assay type: functional, cell-based; settings: NCI-H226, 72 h
NCI-H2286 = assay: Antiproliferative activity against human NCI-H2286 cells assessed as reduction in cell viability measured after 72 hrs; assay type: functional, cell-based; settings: NCI-H2286, 72 h
NCI-H441 = assay: Antiproliferative activity against human NCI-H441 cells assessed as reduction in cell viability measured after 72 hrs; assay type: functional, cell-based; settings: NCI-H441, 72 h
[7] = molecular target: T2, Fibroblast growth factor receptor 1 (Homo sapiens, UniProt P11362); settings: dose 10.0 nM, time 60.0 min
[8] = molecular target: Vascular endothelial growth factor receptor 1 (Homo sapiens) (UniProt P17948); assay: Inhibition of VEGFR1 (unknown origin) at 1 uM using Poly (Glu,Tyr) 4:1 as substrate incubated for 60 mins in presence of ATP by ELISA analysis relative to control
[9] = Stability in rat whole blood assessed as parent compound remaining measured after 2 hrs by LC-MS/MS analysis; assay type: ADME, tissue-based; settings: read-out: Stability
[10] = molecular target: Voltage-gated inwardly rectifying potassium channel KCNH2 (Homo sapiens, UniProt Q12809); assay: Inhibition of hERG expressed in CHO cells at -80 mV holding potential by automated patch clamp method; assay type: toxicity, cell-based
[11] = AUC (0 to t) in CD-1 mouse at 1 mg/kg, iv measured after 24 hrs by LC-MS/MS analysis; assay type: ADME, organism-based; parameters: time 24 hrs, dose 1 mg/kg, route iv; settings: in vivo
[12] = molecular target: Vascular endothelial growth factor receptor 2 (Homo sapiens) (UniProt P35968); assay: Inhibition of VEGFR2 (unknown origin) at 1 uM using Poly (Glu,Tyr) 4:1 as substrate incubated for 60 mins in presence of ATP by ELISA analysis relative to control
NCI-H522 = assay: Antiproliferative activity against human NCI-H522 cells assessed as reduction in cell viability measured after 72 hrs; assay type: functional, cell-based; settings: NCI-H522, 72 h
[13] = MRT in CD-1 mouse at 1 mg/kg, iv measured after 24 hrs by LC-MS/MS analysis; assay type: ADME, organism-based; settings: in vivo
NCI-H716 [14] = assay: Antitumor activity against human NCI-H716 cells xenografted in nude mouse assessed as tumor growth inhibition at 200 mg/kg, po administered once daily for 18 days by microcaliper analysis relative to control; assay type: functional; parameters: scale not given: the % may be the effect or the level left; settings: time 18 day
[15] = molecular target: T1, Fibroblast growth factor receptor (Homo sapiens); assay: Inhibition of FGFR phosphorylation in human SNU-16 cells at 5 nM measured after 24 hrs; assay type: cell-based
[16] = molecular target: Fibroblast growth factor receptor 2 (Homo sapiens, UniProt P21802); assay: Inhibition of FGFR2 (unknown origin) using Poly (Glu,Tyr) 4:1 as substrate incubated for 60 mins in presence of ATP by ELISA analysis
NCI-H1792 = assay: Antiproliferative activity against human NCI-H1792 cells assessed as reduction in cell viability measured after 72 hrs; assay type: functional, cell-based; settings: NCI-H1792, 72 h
OPM-2 = assay: Antiproliferative activity against human OPM-2 cells expressing FGFR3 assessed as reduction in cell viability measured after 72 hrs; assay type: functional, cell-based; settings: OPM-2, 72 h
NCI-H716 [17] = assay: Antitumor activity against human NCI-H716 cells xenografted in nude mouse assessed as tumor growth inhibition at 400 mg/kg, po administered once daily for 18 days by microcaliper analysis; assay type: functional, organism-based; settings: time 18.0 day
[18] = molecular target: Fibroblast growth factor receptor 3 (Homo sapiens, UniProt P22607, V555M); assay: Inhibition of FGFR3 V555M mutant (unknown origin)
[19] = molecular target: T2, Fibroblast growth factor receptor 1; settings: dose 100.0 nM, time 60.0 min
SNU-16 = assay: Antiproliferative activity against human SNU-16 cells assessed as reduction in cell viability measured for 72 hrs; assay type: functional, cell-based; settings: SNU-16, 72 h
HCC4006 = assay: Antiproliferative activity against human HCC4006 cells assessed as reduction in cell viability measured after 72 hrs; assay type: functional, cell-based; settings: HCC4006, 72 h
NCI-H727 = assay: Antiproliferative activity against human NCI-H727 cells assessed as reduction in cell viability measured after 72 hrs; assay type: functional, cell-based; settings: NCI-H727, 72 h
[20] = molecular target: T1, Fibroblast growth factor receptor (Homo sapiens); assay: Inhibition of FGFR signalling in human SNU-16 assessed as inhibition of PLCgamma phosphorylation at 0.1 nM incubated for 2 hrs by Western blot analysis; assay type: cell-based
ASPC1 = assay: Antiproliferative activity against human ASPC1 cells assessed as reduction in cell viability measured after 72 hrs; assay type: functional, cell-based; settings: ASPC1, 72 h
[21] = AUC (0 to infinity) in CD-1 mouse at 1 mg/kg, iv measured after 24 hrs by LC-MS/MS analysis; assay type: ADME, organism-based; parameters: dose 1 mg/kg, time 24 hrs, route iv; settings: in vivo
[22] = Half life in CD-1 mouse at 3 mg/kg, po measured after 24 hrs by LC-MS/MS analysis; assay type: ADME, organism-based; settings: in vivo
[23] = Oral bioavailability in CD-1 mouse at 3 mg/kg measured after 24 hrs by LC-MS/MS analysis; assay type: ADME, organism-based; settings: in vivo

T1 sequence (P11362 whole entry, looked up): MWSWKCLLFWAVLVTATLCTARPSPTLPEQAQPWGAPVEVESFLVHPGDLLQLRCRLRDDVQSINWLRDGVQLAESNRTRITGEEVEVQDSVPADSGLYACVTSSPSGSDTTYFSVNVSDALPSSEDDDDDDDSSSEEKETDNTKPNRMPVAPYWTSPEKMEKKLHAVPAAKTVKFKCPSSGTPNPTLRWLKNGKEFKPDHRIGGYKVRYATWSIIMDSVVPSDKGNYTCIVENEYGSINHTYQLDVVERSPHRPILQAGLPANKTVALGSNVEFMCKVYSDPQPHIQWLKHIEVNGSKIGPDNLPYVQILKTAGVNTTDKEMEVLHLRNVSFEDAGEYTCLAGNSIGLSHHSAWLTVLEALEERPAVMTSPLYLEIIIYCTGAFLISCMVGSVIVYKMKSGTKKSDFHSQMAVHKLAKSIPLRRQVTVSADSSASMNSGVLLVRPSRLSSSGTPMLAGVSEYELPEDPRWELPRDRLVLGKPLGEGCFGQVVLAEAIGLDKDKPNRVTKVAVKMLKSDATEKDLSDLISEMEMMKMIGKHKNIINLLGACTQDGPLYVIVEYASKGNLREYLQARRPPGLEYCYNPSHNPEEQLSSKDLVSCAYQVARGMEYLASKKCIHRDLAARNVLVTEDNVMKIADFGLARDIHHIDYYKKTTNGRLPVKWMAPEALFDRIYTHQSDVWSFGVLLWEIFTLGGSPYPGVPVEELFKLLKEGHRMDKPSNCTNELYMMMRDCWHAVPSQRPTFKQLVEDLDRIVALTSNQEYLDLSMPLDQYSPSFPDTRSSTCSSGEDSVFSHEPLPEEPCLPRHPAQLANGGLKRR
T1 sequence (P21802 whole entry, looked up): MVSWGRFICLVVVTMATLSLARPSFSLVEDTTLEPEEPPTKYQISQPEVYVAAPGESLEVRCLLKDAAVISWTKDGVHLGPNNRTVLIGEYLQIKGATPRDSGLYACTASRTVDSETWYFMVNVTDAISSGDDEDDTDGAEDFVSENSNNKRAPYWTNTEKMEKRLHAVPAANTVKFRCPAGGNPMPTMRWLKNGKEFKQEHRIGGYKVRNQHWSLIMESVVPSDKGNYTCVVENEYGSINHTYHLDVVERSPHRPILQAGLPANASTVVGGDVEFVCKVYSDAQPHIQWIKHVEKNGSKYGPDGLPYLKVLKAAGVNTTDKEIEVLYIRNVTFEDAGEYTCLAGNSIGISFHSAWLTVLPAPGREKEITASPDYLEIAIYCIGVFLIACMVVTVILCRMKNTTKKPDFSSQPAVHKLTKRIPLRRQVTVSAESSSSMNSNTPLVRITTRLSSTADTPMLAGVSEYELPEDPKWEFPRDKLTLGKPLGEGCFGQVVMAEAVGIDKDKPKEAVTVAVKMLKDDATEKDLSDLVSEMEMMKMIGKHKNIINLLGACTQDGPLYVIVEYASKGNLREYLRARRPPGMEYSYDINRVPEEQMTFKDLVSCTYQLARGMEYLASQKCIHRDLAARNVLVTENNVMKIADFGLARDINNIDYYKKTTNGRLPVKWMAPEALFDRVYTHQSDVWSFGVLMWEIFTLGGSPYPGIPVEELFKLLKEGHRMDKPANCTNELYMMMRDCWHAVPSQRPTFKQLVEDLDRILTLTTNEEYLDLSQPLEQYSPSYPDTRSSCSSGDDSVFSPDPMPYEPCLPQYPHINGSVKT
T1 sequence (P22455 whole entry, looked up): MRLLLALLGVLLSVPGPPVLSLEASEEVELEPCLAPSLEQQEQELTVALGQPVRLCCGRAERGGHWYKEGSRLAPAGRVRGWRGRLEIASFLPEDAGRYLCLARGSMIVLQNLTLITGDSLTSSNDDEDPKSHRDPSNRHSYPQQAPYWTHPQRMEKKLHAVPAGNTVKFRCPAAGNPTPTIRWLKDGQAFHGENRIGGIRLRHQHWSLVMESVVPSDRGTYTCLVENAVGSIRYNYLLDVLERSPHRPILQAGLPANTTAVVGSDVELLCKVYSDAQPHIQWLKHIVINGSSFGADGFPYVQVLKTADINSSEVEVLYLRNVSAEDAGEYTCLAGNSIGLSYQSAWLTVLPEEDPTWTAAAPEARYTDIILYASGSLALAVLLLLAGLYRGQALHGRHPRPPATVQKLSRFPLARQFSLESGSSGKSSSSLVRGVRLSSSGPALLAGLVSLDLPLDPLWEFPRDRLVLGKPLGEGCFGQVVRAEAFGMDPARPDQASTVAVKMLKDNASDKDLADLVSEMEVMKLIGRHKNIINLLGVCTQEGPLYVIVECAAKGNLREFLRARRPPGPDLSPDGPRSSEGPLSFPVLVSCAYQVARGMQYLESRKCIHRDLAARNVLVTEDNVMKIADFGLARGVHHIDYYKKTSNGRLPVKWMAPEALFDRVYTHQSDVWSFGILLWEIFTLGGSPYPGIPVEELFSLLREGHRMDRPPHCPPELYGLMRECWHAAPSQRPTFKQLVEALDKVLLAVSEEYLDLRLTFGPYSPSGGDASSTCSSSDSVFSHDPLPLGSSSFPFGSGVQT
T1 sequence (P22607 whole entry, looked up): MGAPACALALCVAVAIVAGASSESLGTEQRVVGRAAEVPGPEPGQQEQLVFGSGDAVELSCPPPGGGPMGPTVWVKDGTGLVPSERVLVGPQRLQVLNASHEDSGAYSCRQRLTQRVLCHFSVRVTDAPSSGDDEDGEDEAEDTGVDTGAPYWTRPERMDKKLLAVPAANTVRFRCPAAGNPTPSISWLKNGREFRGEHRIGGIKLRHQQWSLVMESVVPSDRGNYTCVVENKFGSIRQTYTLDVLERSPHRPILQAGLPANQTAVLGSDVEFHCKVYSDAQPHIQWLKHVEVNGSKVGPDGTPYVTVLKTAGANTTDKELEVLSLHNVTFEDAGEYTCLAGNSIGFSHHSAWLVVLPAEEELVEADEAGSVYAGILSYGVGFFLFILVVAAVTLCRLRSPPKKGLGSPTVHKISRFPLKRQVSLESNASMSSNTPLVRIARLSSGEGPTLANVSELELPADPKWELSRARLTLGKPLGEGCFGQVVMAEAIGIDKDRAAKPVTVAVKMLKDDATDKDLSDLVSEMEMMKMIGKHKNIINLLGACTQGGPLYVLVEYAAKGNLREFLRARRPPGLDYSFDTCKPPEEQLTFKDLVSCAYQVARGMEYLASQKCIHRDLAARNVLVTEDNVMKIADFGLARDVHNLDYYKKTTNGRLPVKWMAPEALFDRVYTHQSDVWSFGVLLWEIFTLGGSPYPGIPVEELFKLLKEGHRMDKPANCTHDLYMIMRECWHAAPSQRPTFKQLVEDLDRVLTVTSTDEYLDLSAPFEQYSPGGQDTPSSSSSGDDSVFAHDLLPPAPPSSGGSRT
T2 sequence (P11362 22-822 limits assumed): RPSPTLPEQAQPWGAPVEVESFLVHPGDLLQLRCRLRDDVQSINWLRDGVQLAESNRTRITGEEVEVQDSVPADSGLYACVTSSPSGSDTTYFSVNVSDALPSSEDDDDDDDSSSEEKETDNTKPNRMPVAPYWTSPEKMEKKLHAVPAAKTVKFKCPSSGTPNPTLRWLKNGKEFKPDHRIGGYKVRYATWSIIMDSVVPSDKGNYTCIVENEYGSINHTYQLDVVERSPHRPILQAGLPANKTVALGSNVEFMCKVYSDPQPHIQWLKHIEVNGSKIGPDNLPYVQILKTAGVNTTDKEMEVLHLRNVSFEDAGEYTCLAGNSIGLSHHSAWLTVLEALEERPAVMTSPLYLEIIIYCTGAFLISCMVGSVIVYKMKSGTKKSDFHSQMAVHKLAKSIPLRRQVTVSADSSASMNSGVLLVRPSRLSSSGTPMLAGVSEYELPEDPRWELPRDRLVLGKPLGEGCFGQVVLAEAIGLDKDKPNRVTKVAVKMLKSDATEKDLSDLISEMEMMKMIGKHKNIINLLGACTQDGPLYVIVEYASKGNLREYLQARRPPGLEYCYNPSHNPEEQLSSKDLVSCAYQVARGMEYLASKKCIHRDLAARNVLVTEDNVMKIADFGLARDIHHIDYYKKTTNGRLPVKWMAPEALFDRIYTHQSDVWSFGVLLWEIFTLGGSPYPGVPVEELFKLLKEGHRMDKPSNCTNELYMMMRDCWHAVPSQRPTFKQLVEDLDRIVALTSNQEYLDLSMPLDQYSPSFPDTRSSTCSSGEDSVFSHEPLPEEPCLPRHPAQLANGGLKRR
Chain of Fibroblast growth factor receptor 3 (Homo sapiens, UniProt P22607, V555M) (P22607 23-806 V555M limits assumed): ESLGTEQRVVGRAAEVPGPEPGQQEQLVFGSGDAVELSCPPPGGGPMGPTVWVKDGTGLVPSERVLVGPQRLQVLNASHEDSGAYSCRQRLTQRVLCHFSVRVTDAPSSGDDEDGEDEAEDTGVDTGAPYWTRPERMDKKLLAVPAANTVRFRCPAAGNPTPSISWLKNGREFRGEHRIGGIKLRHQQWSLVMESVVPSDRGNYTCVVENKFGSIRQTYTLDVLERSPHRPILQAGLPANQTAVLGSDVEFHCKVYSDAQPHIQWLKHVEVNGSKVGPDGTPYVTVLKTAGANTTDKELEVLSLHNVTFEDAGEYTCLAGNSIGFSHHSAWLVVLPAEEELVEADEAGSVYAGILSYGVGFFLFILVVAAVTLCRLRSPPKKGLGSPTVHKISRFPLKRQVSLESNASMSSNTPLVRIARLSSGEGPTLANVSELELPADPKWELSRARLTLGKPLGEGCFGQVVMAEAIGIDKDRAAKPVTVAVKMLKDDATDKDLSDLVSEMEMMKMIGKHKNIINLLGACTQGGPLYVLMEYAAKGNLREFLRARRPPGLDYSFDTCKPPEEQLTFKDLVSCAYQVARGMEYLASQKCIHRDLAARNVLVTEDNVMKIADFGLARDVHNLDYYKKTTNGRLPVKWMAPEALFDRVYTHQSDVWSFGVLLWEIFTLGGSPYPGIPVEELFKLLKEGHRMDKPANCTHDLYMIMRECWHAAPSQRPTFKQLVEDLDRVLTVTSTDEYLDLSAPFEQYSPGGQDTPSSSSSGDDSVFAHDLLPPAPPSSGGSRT
Chain of Fibroblast growth factor receptor 3 (Homo sapiens, UniProt P22607) (P22607 whole entry): as the sequence (P22607 whole entry, looked up) above
Chain of Fibroblast growth factor receptor 2 (P21802 whole entry): as the sequence (P21802 whole entry, looked up) above
Chain of Fibroblast growth factor receptor 4 (P22455 whole entry): as the sequence (P22455 whole entry, looked up) above

## C=CC(=O)N1CCCC(n2nc3c(=O)[nH]nc(N)c3c2-c2oc3ccc(C)cc3c2C)C1 (stereo not drawn)
[1]
  IC50: 0.155 µM
[2]
  inhibition: Active
[3]
  IC50: 0.0526 µM
[4]
  Activity: 65%
[5]
  inhibition: Active
A549
  IC50: > 10 µM
NCI-H3122
  IC50: > 10 µM
[6]
  half-life: 37.5 min
SU.86.86
  IC50: > 10 µM
CAPAN-1
  IC50: > 10 µM
NCI-H520
  IC50: > 10 µM
NCI-H226
  IC50: > 10 µM
NCI-H2286
  IC50: > 10 µM
NCI-H441
  IC50: > 10 µM
[7]
  inhibition: 80.9%
[8]
  inhibition: < 50%
[9]
  remaining at 2 h: > 40%
[10]
  IC50: 17.2 µM
[11]
  AUC(0-t) at 24 h: 115 ng·h/mL
[12]
  inhibition: < 50%
NCI-H522
  IC50: > 10 µM
[13]
  MRT: 15.1 min
NCI-H716 [14]
  Activity: 83.5%
[15]
  inhibition: Active
[16]
  IC50: 0.0136 µM
NCI-H1792
  IC50: > 10 µM
OPM-2
  IC50: 0.299 µM
NCI-H716 [17]
  Activity: Active
[18]
  IC50: 2 µM
[19]
  inhibition: 102%
SNU-16
  IC50: 0.0012 µM
HCC4006
  IC50: > 10 µM
NCI-H727
  IC50: > 10 µM
[20]
  inhibition: Active
ASPC1
  IC50: > 10 µM
[21]
  AUC: 116 ng·h/mL
[22]
  half-life: 55.9 min
[23]
  bioavailability: 20.4%
